Measured values published in ChEMBL document CHEMBL1201862, “PubChem BioAssay data set” (2004).
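Growth conditions: 96-well plates. Treatment: test compound, 48 hours, 5 concentrations. Analysis: linear interpolation between bracketing concentrations; unreached endpoints set to highest concentration. Here, GI50 denotes the concentration required for 50% inhibition of growth.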 Calls of active or inactive are those of the source. No stated cut-off is given here; in the data, active = GI50 up to about 1.1 µM and inactive = higher.

Assays:
Assay in all cases: NCI tumour cell line growth inhibition, 48 h
SK-MEL-5 = test system: SK-MEL-5
SNB-19 = test system: SNB-19
SF-295 = test system: SF-295
UACC-62 = test system: UACC-62
OVCAR-4 = test system: OVCAR-4
LOX IMVI = test system: LOX IMVI
MDA-MB-435 = test system: MDA-MB-435
U-251 = test system: U-251
DU-145 = test system: DU-145
CCRF-CEM = test system: CCRF-CEM
BT-549 = test system: BT-549
HCT-15 = test system: HCT-15
HT-29 = test system: HT-29
SR = test system: SR
COLO 205 = test system: COLO 205
NCI-H226 = test system: NCI-H226
OVCAR-8 = test system: OVCAR-8
UACC-257 = test system: UACC-257
SNB-75 = test system: SNB-75

Structure (SMILES)	GI50 (SK-MEL-5)	GI50 (SNB-19)	GI50 (SF-295)	GI50 (UACC-62)	GI50 (OVCAR-4)	GI50 (LOX IMVI)	GI50 (MDA-MB-435)	GI50 (U-251)	GI50 (DU-145)	GI50 (CCRF-CEM)	GI50 (BT-549)	GI50 (HCT-15)	GI50 (HT-29)	GI50 (SR)	GI50 (COLO 205)	GI50 (NCI-H226)	GI50 (OVCAR-8)	GI50 (UACC-257)	GI50 (SNB-75)
CC(C)(C)OC(=O)N1CCc2c(n(C/C=C/c3ccccc3)[nH]c2=O)C1	34.4 µM (inactive)	> 100 µM (inactive)	> 100 µM (inactive)	> 100 µM (inactive)	97.1 µM (inactive)	> 100 µM (inactive)	> 100 µM (inactive)	> 100 µM (inactive)	> 87.9 µM (inactive)	72.3 µM (inactive)	> 100 µM (inactive)	> 100 µM	> 100 µM (inactive)	35.5 µM (inactive)	> 70.6 µM (inactive)	> 100 µM (inactive)	> 100 µM (inactive)	> 100 µM (inactive)	> 100 µM (inactive)
NCCN1C(=O)CN=C(c2ccc(Cl)cc2)c2cc(Cl)ccc21	16.9 µM (inactive)	20.1 µM (inactive)	32.8 µM (inactive)	17.9 µM (inactive)	16.2 µM (inactive)	16.2 µM (inactive)	14.9 µM (inactive)	16.8 µM (inactive)	17.1 µM (inactive)	15.5 µM (inactive)	16 µM (inactive)	16.7 µM	16.8 µM (inactive)	17.9 µM (inactive)	19.3 µM (inactive)	14 µM (inactive)	16.7 µM (inactive)	19 µM (inactive)	14.9 µM (inactive)
CNC(=O)CC1NC(=O)c2csc(n2)-c2ccc(-c3nc(C4=NC(C(=O)N5CCCC5C(N)=O)CO4)cs3)nc2-c2csc(n2)-c2csc(n2)C(C(C)C)NC(=O)CNC(=O)c2csc(n2)C(C(C)C)NC(=O)c2nc1sc2C (centres undefined)	0.00289 µM (active)	0.043 µM (active)	0.021 µM (active)	0.00438 µM (active)	4.33 µM (inactive)	0.00191 µM (active)	> 25 µM (inactive)	0.0025 µM (active)	0.0038 µM (active)	0.00527 µM (active)	0.0268 µM (active)	0.479 µM	> 25 µM (inactive)	> 25 µM (inactive)	0.00126 µM (active)	0.00391 µM (active)	0.00485 µM (active)	0.02 µM (active)	0.00203 µM (active)
O=C(C/C(=N/O)C(=O)NC1=C(Cl)C(=O)c2ccccc2C1=O)CC(c1ccccc1)c1c(O)c2ccccc2oc1=O (centres undefined)	1.12 µM (inactive)	19.1 µM (inactive)	7.93 µM (inactive)	3.14 µM (inactive)	10 µM (inactive)	3.39 µM (inactive)	2.22 µM (inactive)	7.69 µM (inactive)	3.27 µM (inactive)	4.56 µM (inactive)	16.4 µM (inactive)	3.16 µM	4.84 µM (inactive)	7.35 µM (inactive)	13.4 µM (inactive)	2.48 µM (inactive)	10.8 µM (inactive)	18.5 µM (inactive)	3.87 µM (inactive)
COC(=O)c1ccc2n1C1CC3CC(CC2C3)C1	30.9 µM (inactive)	> 100 µM (inactive)	> 100 µM (inactive)	41.2 µM (inactive)	> 100 µM (inactive)	> 100 µM (inactive)	> 100 µM (inactive)	> 100 µM (inactive)	> 100 µM (inactive)	> 100 µM (inactive)	> 100 µM (inactive)	> 100 µM	31.5 µM (inactive)	46.3 µM (inactive)	> 100 µM (inactive)	> 100 µM (inactive)	> 100 µM (inactive)	> 100 µM (inactive)	> 100 µM (inactive)
Cc1ccc2c(c1)[nH]c(=S)n2C=C1C(=O)CC(C)(C)CC1=O	> 100 µM (inactive)	> 100 µM (inactive)	> 100 µM (inactive)	> 100 µM (inactive)	> 100 µM (inactive)	> 100 µM (inactive)	> 100 µM (inactive)	> 100 µM (inactive)	> 100 µM (inactive)	> 100 µM (inactive)	> 100 µM (inactive)	> 100 µM	> 100 µM (inactive)	> 100 µM (inactive)	> 100 µM (inactive)	> 100 µM (inactive)	> 100 µM (inactive)	> 100 µM (inactive)	> 100 µM (inactive)
CCOC(=O)c1cccc([N+](=O)[O-])c1N	> 100 µM (inactive)	> 100 µM (inactive)	> 100 µM (inactive)	> 100 µM (inactive)	> 100 µM (inactive)	> 100 µM (inactive)	> 100 µM (inactive)	> 100 µM (inactive)	> 100 µM (inactive)	> 100 µM (inactive)	> 100 µM (inactive)	> 100 µM	> 100 µM (inactive)	> 100 µM (inactive)	> 100 µM (inactive)	> 100 µM (inactive)	> 100 µM (inactive)	> 100 µM (inactive)	62.1 µM (inactive)
Cc1c(C#N)c2nnn(-c3ccc([N+](=O)[O-])cc3)c(=O)n2c1-c1ccccc1	12.6 µM (inactive)	11.6 µM (inactive)	3.57 µM (inactive)	6.19 µM (inactive)	8.04 µM (inactive)	10.3 µM (inactive)	13 µM (inactive)	4.26 µM (inactive)	9.44 µM (inactive)	5.98 µM (inactive)	14.6 µM (inactive)	6.15 µM	8.53 µM (inactive)	4.62 µM (inactive)	10.4 µM (inactive)	12.6 µM (inactive)	10.7 µM (inactive)	16.9 µM (inactive)	19.8 µM (inactive)
O=S(=O)(/N=c1/[nH]c2ccccc2n1S(=O)(=O)c1ccccc1)c1ccccc1	47.8 µM (inactive)	32.7 µM (inactive)	41.1 µM (inactive)	26.7 µM (inactive)	46.6 µM (inactive)	> 100 µM (inactive)	36.8 µM (inactive)	22.1 µM (inactive)	57.7 µM (inactive)	31.3 µM (inactive)	41.2 µM (inactive)	36.3 µM	44 µM (inactive)	> 10 µM (inactive)	53.5 µM (inactive)	56.2 µM (inactive)	55 µM (inactive)	45 µM (inactive)	88.3 µM (inactive)
CCCCNC1CCC2(SCCS2)c2[nH]c3ccccc3c21 (centres undefined)	5.14 µM (inactive)	29.6 µM (inactive)	34.5 µM (inactive)	20.2 µM (inactive)	> 54.1 µM (inactive)	2.64 µM (inactive)	5.21 µM (inactive)	43.1 µM (inactive)	19.1 µM (inactive)	3.2 µM (inactive)	23.4 µM (inactive)	4.78 µM	25.2 µM (inactive)	3.76 µM (inactive)	17.5 µM (inactive)	42 µM (inactive)	14.4 µM (inactive)	4.09 µM (inactive)	43.1 µM (inactive)
COc1cc2c(SCCN(C)C)nc3ccccc3c2c2ccccc12	1.83 µM (inactive)	2.45 µM (inactive)	1.77 µM (inactive)	1.63 µM (inactive)	2.62 µM (inactive)	1.69 µM (inactive)	1.96 µM (inactive)	1.87 µM (inactive)	3.71 µM (inactive)	0.281 µM (active)	5.7 µM (inactive)	1.61 µM	2.64 µM (inactive)	1.7 µM (inactive)	1.68 µM (inactive)	1.94 µM (inactive)	2.14 µM (inactive)	1.77 µM (inactive)	2.51 µM (inactive)
